Results reported in US10336748B2, “Methyoxy-substituted pyrrolopyridine modulators of RORC2 and methods of use thereof” (Pfizer Inc., priority 2015, dated 2019).

Assays:
[1] = target: T1, RORC2 ligand binding domain (6-His-RORC2 LBD) (Homo sapiens, UniProt P51449); test: Co-activator recruitment by TR-FRET; type: biochemical; conditions: 6.3 nM RORC2 LBD, 200 nM SRC1-2 coactivator peptide, 3 hr room temperature
T1 construct: made in house; host or cells: E. coli
T1 sequence (P51449 269-508 limits assumed): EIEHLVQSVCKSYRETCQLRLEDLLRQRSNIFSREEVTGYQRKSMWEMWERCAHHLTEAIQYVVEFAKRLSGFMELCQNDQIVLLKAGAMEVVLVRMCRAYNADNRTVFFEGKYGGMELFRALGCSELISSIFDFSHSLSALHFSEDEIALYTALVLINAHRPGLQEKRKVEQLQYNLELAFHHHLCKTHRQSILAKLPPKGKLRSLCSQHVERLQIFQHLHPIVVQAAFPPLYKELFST
From the text: The activity of compound of the invention can be determined by a co-activator recruitment by TR-FRET (time-resolved fluorescence resonance energy transfer) assay. In general, the assay is based on the interaction between N-terminally Six-Histidine-tagged-RORC2 ligand binding domain (6-His-RORC2 LBD), expressed in E. coli and purified by affinity chromatography, and biotin-coactivator peptide SRC1-2 (biotin-aminohexanoic acid-[…]-NH2; SEQ ID NO: 1) containing the LXXLL consensus domain which is responsible for receptor binding. This interaction is detected by addition of Europium labeled-anti-His antibody (Ex. 337 nm, Em. 620 nm, which binds to 6His) and Streptavidin-APC (Ex. 620 nm, Em. 665 nm, which binds to biotin). When receptor and coactivator are bound to each other, upon shining light at 337 nm on the sample, the Europium emits fluorescence that excites APC due to close proximity (FRET) and this signal is measured at 665 nm. Due to the long lasting fluorescence emission of Europium, the non-specific, short-lived fluorescence is time-resolved (TR) from the fluorescence of interest. Inhibitors of the interaction of receptor and coactivator peptide are detected by a decrease in TR-FRET signal.
Specifically, in one embodiment the aforementioned assay was performed as outlined below. The assay was carried out in black polystyrene. 384-well plates in a total assay volume of 50.5 μL. The assay buffer contained 50 mM TRIS-HCL pH 7.5, 1 mM NaCl, 2 mM MgCl2, 0.5 mg/mL bovine serum albumin, and 5 mM dithiothreitol. The final concentration of reagents was 6.3 nM RORC2 LBD, 200 nM SRC1-2, 50 nM streptavidin APC, 1 nM Europium-labeled anti-His antibody, and varying concentrations of compounds such that final concentration of DMSO is 1% (v/v). The assay steps were: (1) dispensing […] compound at 100× final concentration in DMSO (test wells) or DMSO only (control wells for no inhibition); and (2) dispensing 50 μL mixture of the other assay components including receptor (test wells) or excluding receptor (control wells for maximal inhibition).
Assay mixtures were incubated are room temperature for 3 hr and read in EnVision 2100 Multilabel Reader (PerkinElmer Life Sciences) at Excitation Filter 320, Emission Europium Filter 615, Emission APC Filter 665, Dichroic Mirror D400/D630.
TR-FRET signal was determined by calculating the ratio of 665 nm by 615 nm and […] values of compounds of the invention (Table 1) were determined by the non-linear regression analysis of dose response curves.

human Th17 cells = test: IL-17 production from human Th17 cells; type: cell-based; conditions: 144 h; IL-17A in supernatant by ELISA (MSD) after 6 days, human CD4+ T cells, anti-CD3 + anti-CD28 + cytokine cocktail
Experimental: The activity of compound of the invention can be also be determined by an IL-17 production from human Th17 cells assay. In general, this assay measures blockade of IL-17 production, the signature cytokine of T helper 17 (Th17) cells, by compounds. Purified human CD4+ T cells are stimulated with anti-CD3+anti-CD28 and incubated with a cytokine cocktail that induce their differentiation into Th17 in the absence or presence of various concentrations of compound. After 6 days, IL-17A concentration is measured in the cell culture supernatant with an ELISA kit (MSD).
Preparation of human CD4+ T cells. CD4+ T cells were purified from buffy coats from healthy donors (obtained from Massachusetts General Hospital) by negative selection the following procedure: Mixing 25 mL of blood with 1 mL of Rosette Sep CD4+ T cell enrichment cocktail (StemCell Technologies) followed by application of a layer of 14 mL Ficoll Paque Plus (Amersham GE Healthcare) and subsequent centrifugation at 1200 g for 20 min at room temperature. The Ficoll layer was then harvested and washed with phosphate saline buffer containing 2% (v/v) fetal bovine serum and cells were resuspended with RPMI medium containing 10% (v/v) fetal bovine serum and 10% (v/v) DMSO, frozen and kept in LN2 until used.
On the first day of the assay, a vial containing 10^7 CD4+ T cells is thawed rapidly in 37° C. water bath, immediately transferred into 20 mL X-Vivo 15 medium (Lonza), is spun for 6 min at 300×g, the supernatant is discarded, and the resulting pellet is re-suspended at 10^6 cells/mL in […] fresh X-Vivo 15 medium, followed by storage overnight in a tissue culture vessel in a humidified chamber at 37° C. and 5% CO2. Serial dilutions of compounds of the invention are prepared at 10× final concentration in X-Vivo15 medium containing 3% (v/v) DMSO.
On the second day of the assay, a 384-well tissue culture plate was coated with 10 μg/mL anti-hCD3 (eBioscience) at 50 μL/well. After 2 hr at 37° C., the supernatant is discarded and the coated plates are kept in a sterile tissue culture hood.
Cytokine plus anti-CD28 cocktail is prepared by mixing 25 ng/mL hIL-6 (Peprotech), 5 ng/mL hTGFbeta1 (Peprotech), 12.5 ng/mL IL-1beta (Peprotech), 25 ng/mL hIL-21, 25 ng/mL hIL-23 (R&D Systems), and 1 ug/mL anti-hCD28 (eBioscience) in X-Vivo 15 medium. The cytokine plus anti-CD28 cocktail with CD4+ cells is prepared such that the cocktail is diluted 10-fold and cell density is 0.22×10^6/mL. The mixture is incubated 1 hr at 37° C.
90 μL (20,000 cells) dispensed per well in the anti-hCD3 coated plate prepared as noted above.
10 μL 10× compound is added per well (final DMSO=0.3%) from the compound plate that was previously prepared, followed by 6 days of incubation in a tissue culture vessel in a humidified chamber at 37° C. and 5% CO2.
On day six of the assay, production of IL-17A in 10 μL of the supernatant is determined by sandwich ELISA using 384w hIL17 MSD plates following the manufacturer's protocol. Measurement is carried out in a Sector Imager 6000 by the same manufacturer. Signal units from the instrument are converted to pg/mL using a calibration curve with known amounts of IL-17A. IC50 values of test compounds (Table 2) are determined by the non-linear regression analysis of dose response curves.

| Compound | IC50 [1] | IC50 (human Th17 cells) |
| --- | --- | --- |
| COc1c(NC(=O)c2cccc(C#N)c2)cnc2c1c(C1CCN(C(=O)[C@@H](C)C(C)(C)C)CC1)cn2C [Example 15, (S)-3-cyano-N-(4-methoxy-1-methyl-3-(1-(2,3,3-trimethylbutanoyl)piperidin-4-yl)-1H-pyrrolo[2,3-b]pyridin-5-yl)benzamide] | 8.6 nM | 23.5 nM |
| COc1c(NC(=O)c2cccc(C#N)c2)cnc2c1c(C1CCN(C(=O)c3c(C)cccc3F)CC1)cn2C [Example 16, 3-cyano-N-(3-(1-(2-fluoro-6-methylbenzoyl)piperidin-4-yl)-4-methoxy-1-methyl-1H-pyrrolo[2,3-b]pyridin-5-yl)benzamide] | 7.2 nM | 36.5 nM |
| COc1c(NC(=O)c2cc(C#N)cc(CO)c2)cnc2c1c(C1CCN(C(=O)C3CCCC3)CC1)cn2C [Example 17, 3-cyano-N-(3-(1-(cyclopentanecarbonyl)piperidin-4-yl)-4-methoxy-1-methyl-1H-pyrrolo[2,3-b]pyridin-5-yl)-5-(hydroxymethyl)benzamide] | 14.2 nM | 82 nM |
| COc1c(NC(=O)c2cccc(C#N)c2)cnc2c1c(C1CCN(C(=O)[C@H](C)C3CCCC3)CC1)cn2C [Example 18, (R)-3-cyano-N-(3-(1-(2-cyclopentylpropanoyl)piperidin-4-yl)-4-methoxy-1-methyl-1H-pyrrolo[2,3-b]pyridin-5-yl)benzamide] | 7.1 nM | 6.5 nM |
| COc1c(NC(=O)c2cccc(C#N)c2)cnc2c1c(C1CCN(C(=O)[C@@H](C)C3CCCC3)CC1)cn2C [Example 19, (S)-3-cyano-N-(3-(1-(2-cyclopentylpropanoyl)piperidin-4-yl)-4-methoxy-1-methyl-1H-pyrrolo[2,3-b]pyridin-5-yl)benzamide] | 13.3 nM | 22.3 nM |
| COc1c(NC(=O)c2cccc(C#N)c2)cnc2c1c([C@@H]1[C@@H]3CC[C@H]1CN(C(=O)C(C)C)C3)cn2C [Example 20, 3-cyano-N-(3-(3-isobutyryl-3-azabicyclo[3.2.1]octan-8-yl)-4-methoxy-1-methyl-1H-pyrrolo[2,3-b]pyridin-5-yl)benzamide] | 23.2 nM | 112 nM |
| COc1c(NC(=O)c2cccc(C#N)c2)cnc2c1c([C@@H]1[C@@H]3CC[C@H]1CN(C(=O)C1CCCC1)C3)cn2C [Example 23, 3-cyano-N-(3-((1R,5S,8r)-3-(cyclopentanecarbonyl)-3-azabicyclo[3.2.1]octan-8-yl)-4-methoxy-1-methyl-1H-pyrrolo[2,3-b]pyridin-5-yl)benzamide] | 31.2 nM | 38 nM |
| COc1c(NC(=O)c2cccc(C#N)c2)cnc2c1c(C1CCN(C(=O)C3CCCC3)C[C@@H]1C)cn2C (stereo partly drawn) [Example 24, 3-cyano-N-(3-((3R,4R)-1-(cyclopentanecarbonyl)-3-methylpiperdin-4-yl)-4-methoxy-1-methyl-1H-pyrrolo[2,3-b]pyridin-5-yl)benzamide] | 10.2 nM | 25 nM |
| COc1ccc(C(=O)Nc2cnc3c(c([C@@H]4CCN(C(=O)C5CCCC5)C[C@@H]4C)cn3C)c2OC)cc1C#N [Example 25, 3-cyano-N-(3-((3R,4R)-1-(cyclopentanecarbonyl)-3-methylpiperidin-4-yl)-4-methoxy-1-methyl-1H-pyrrolo[2,3-b]pyridin-5-yl)-4-methoxybenzamide] | 10.1 nM | 12 nM |
| COc1c(NC(=O)c2cccc(C#N)c2)cnc2c1c([C@@H]1CCN(C(=O)[C@H](C)C(C)(C)C)C(C)(C)C1)cn2C [Example 26, 3-cyano-N-(3-((R)-2,2-dimethyl-1-((R)-2,3,3-trimethylbutanoyl)piperidin-4-yl)-4-methoxy-1-methyl-1H-pyrrolo[2,3-b]pyridin-5-yl)benzamide] | 10.4 nM | 6.4 nM |
| COc1c(NC(=O)c2cccc(C#N)c2)cnc2c1c([C@@H]1CCN(C(=O)C3CCCCC3)C(C)(C)C1)cn2C [Example 27, (R)-3-cyano-N-(3-(1-(cyclohexanecarbonyl)-2,2-dimethylpiperidin-4-yl)-4-methoxy-1-methyl-1H-pyrrolo[2,3-b]pyridin-5-yl)benzamide] | 4.8 nM | 11.3 nM |
| COc1c(NC(=O)c2cccc(C#N)c2)cnc2c1c([C@@H]1CCN(C(=O)C(C)C)C(C)(C)C1)cn2C [Example 28, (R)-3-cyano-N-(3-(1-isobutyryl-2,2-dimethylpiperidin-4-yl)-4-methoxy-1-methyl-1H-pyrrolo[2,3-b]pyridin-5-yl)benzamide] | 6.2 nM | 21.2 nM |
| COc1ccc(C(=O)Nc2cnc3c(c([C@@H]4CCN(C(=O)C(C)C)C(C)(C)C4)cn3C)c2OC)cc1C#N [Example 29, (R)-3-cyano-N-(3-(1-isobutyryl-2,2-dimethylpiperidin-4-yl)-4-methoxy-1-methyl-1H-pyrrolo[2,3-b]pyridin-5-yl)-4-methoxybenzamide] | 8.1 nM | 8.9 nM |
| COc1ccc(C(=O)Nc2cnc3c(c([C@@H]4CCN(C(=O)C5CCCC5)C(C)(C)C4)cn3C)c2OC)cc1C#N [Example 30, (R)-3-cyano-N-(3-(1-(cyclopentanecarbonyl)-2,2-dimethylpiperidin-4-yl)-4-methoxy-1-methyl-1H-pyrrolo[2,3-b]pyridin-5-yl)-4-methoxybenzamide] | 13.5 nM | 6.7 nM |
